{"source": "patent US20180020669A1", "about": "“Methods for the Inhibition and Dispersal of Biofilms” (priority 2015, published 2018)", "key": {"[1]": {"system": "rifampicin-resistant S. aureus mutants", "assay_type": "cell-based, Staphylococcus aureus", "conditions": "discs with 4 μg (4 μg each), TSB agar, overnight, data not shown"}, "[2]": {"system": "E. coli K12 single-knockout mutants", "experiment": "Growth assay of Keio library redox mutants", "assay_type": "cell-based", "description": "To determine whether auranofin acts on the antioxidant pathway mutants from the Keio library, containing single-knockout mutants for all non-essential genes of E. coli K12 were tested in a growth assay.\nAuranofin stock solution (20 mg/ml) in dimethyl sulfoxide (DMSO) was serially diluted in DMSO and each dilution added in duplicate to a 96-well plate to a final DMSO concentration of 2% (v/v). An overnight culture of E. coli mutants and wild type were diluted 1:100 in Luria Bertani (LB) broth and 150 μl of this sample was added to each well of the 96-well plates. Control wells included an ‘untreated’ control with bacteria in the presence of 2% DMSO and a negative sample (containing […] growth media in the presence of 2% DMSO). Plates were incubated at […] for 22-24 h and bacterial growth assessed by absorbance at a wavelength of 595 nm. The minimum inhibitory concentration (MIC) was defined as the lowest concentration of compound that inhibited growth compared to the no-treatment control."}, "S. aureus NCTC 8325": {"system": "S. aureus NCTC 8325", "assay_type": "cell-based, Staphylococcus aureus"}, "[3]": {"system": "multi-drug resistant clinical isolates of K. pneumoniae", "assay_type": "cell-based, Klebsiella pneumoniae", "conditions": "100 μg disc; C204742, C68761, C188681, C71173", "description": "The ability of auranofin to inhibit the growth of four multi-drug resistant clinical isolates of K. pneumoniae was assessed. The clinical isolates were C204742 (resistant to ampicillin and gentamicin), C68761 (resistant to ampicillin, trimethoprim and sulfamethoxazole), C188681 (resistant to ampicillin, trimethoprim, sulfamethoxazole, ceftazidime, tobramycin and ciprofloxacin) and C71173 (resistant to ampicillin, trimethoprim, sulfamethoxazole, ceftazidime, tobramycin, gentamicin and ciprofloxacin). These strains have been previously described in Chowdhury et al., (2011) Antimicrob Agents Chemother 55: 3140-3149.\nBacterial colonies were picked and diluted 1/1000 in Luria broth (LB). 100 μL of each dilution was then streaked out on LB plates. Discs impregnated with 100 μg auranofin or 100 μg gentimicin or auranofin and gentamicin (100 μg each) were placed on top of the agar. The plates were incubated overnight at 37° C. and any zone of bacterial inhibition was noted."}, "S. aureus": {"system": "S. aureus", "experiment": "Resistance frequency assay", "assay_type": "cell-based, Staphylococcus aureus", "conditions": "CaMHB broth with serial dilutions of the compound"}, "[4]": {"system": "S. aureus NCTC 8325 and clinical isolates", "experiment": "Disc assay for resistance development", "assay_type": "cell-based, Staphylococcus aureus", "conditions": "4 μg disc, TSB agar, overnight", "description": "Bacteria were plated on TSB agar. 3M discs (impregnated with 4 μg auranofin, 4 μg rifampicin or DMSO alone) were placed on top of the agar. The plates were incubated overnight at 37° C. and any zone of bacterial inhibition was measured. Any bacterial colonies growing within this zone of inhibition were picked and subsequently analysed for potential resistance against the appropriate compound/antibiotic using a growth or biofilm formation assay as described above. […] These S. aureus Rif mutants were tested in a growth assay and their rifampicin resistance confirmed."}, "[5]": {"system": "S. aureus (strain SH1000-GFP) in THP-1 cells", "experiment": "S. aureus infection of THP-1 cells (fluorescence microscopy)", "assay_type": "cell-based, Staphylococcus aureus", "conditions": "1 μg/ml in 0.5% DMSO, moi 3, over 24 h", "description": "THP-1, a human monocytic cell line was infected with S. aureus (strain SH1000-GFP) at a multiplicity of infection of 3 for 1.5. hours. Cells were washed 3 times and auranofin (1 μg/ml in 0.5% DMSO) or 0.5% DMSO was added. Cells were observed under a fluorescent microscope at various time points post infection (FIG. 3)."}, "[6]": {"system": "preformed S. aureus NCTC 8325 biofilms", "experiment": "Preformed biofilm assay (crystal violet)", "assay_type": "cell-based, Staphylococcus aureus", "description": "The effect of auranofin, alone and in combination with antibiotics, on preformed S. aureus biofilms was assessed. Briefly S. aureus NCTC 8325 was plated in 96-well plates as described in Example 2 and incubated 37° C. for 24 hours. Biofilms were then washed 3 times with TSB and 150 μL of fresh TSB and 3 μL of auranofin at the appropriate dilution in DMSO was added to the wells in duplicate. Plates were again sealed with AeraSeal™ and reincubated 37° C. for 24 hours. Biofilm was then detected as described in above."}, "existing biofilms": {"system": "existing biofilms", "experiment": "Action against existing biofilms (general description)", "assay_type": "cell-based", "conditions": "for concentration for action against existing biofilms (not observed even at): organism not stated"}, "biofilm formation": {"system": "biofilm formation", "experiment": "Inhibition of biofilm formation (general description)", "assay_type": "cell-based", "conditions": "organism not stated"}, "[7]": {"system": "A. baumannii D2 biofilm formation", "experiment": "Biofilm prevention assay (crystal violet)", "assay_type": "cell-based, Acinetobacter baumannii", "conditions": "A. baumannii D2, 24 hours", "description": "The effect of auranofin on the formation of A. baumannii D2 biofilm formation was assessed using the biofilm prevention assay described above in Example 2 with slight modifications. Briefly, A. baumannii D2 were grown overnight in LB media and diluted 1/100 before 150 μL was added to the wells of a flat bottomed 96-well plate. Three microliters of auranofin or gentamicin at the appropriate dilution in DMSO was added to the wells in duplicate. Controls included a positive control with bacteria alone with media and 2% DMSO and a negative (no bacteria) control with media containing 2% DMSO. Plates were sealed with AeraSeal™ and incubated at 37° C. for 24 hours. The plates were then washed three times with PBS, dried at 60° C. for 1 hour and stained with crystal violet for 1 hour. The plates were again washed three times with water, dried and scanned prior to the addition of 33% acetic acid to re-solubilize the crystal violet stain bound to the adherent cells. Absorbance was then measured at 595 nm and expressed as a percentage of the bacteria only control."}, "[8]": {"system": "A. baumannii (D2, A94 and ATCC 17978)", "experiment": "Growth assay in LB, absorbance 595 nm", "assay_type": "cell-based, Acinetobacter baumannii", "description": "In the first growth assay, three strains of A. baumannii (D2, A94 and ATCC 17978) were cultured in LB in the presence of 1.25, 2.5, 5, 10, 20 or 40 μg/mL auranofin or 1.56, 3.13, 6.25, 12.5, 25, 50, 100 or 200 μg/mL gentamicin for 22-24 hours. Bacterial strains were also grown in the absence of antibiotic, and these were used as controls. The bacterial growth was determined by the measurement of absorbance at 595 nm using a Synergy HT Bio-Tek plate reader. The growth of A. baumannii was then assessed as a percentage of the positive control (bacteria alone grown in the presence of 2% DMSO).\nA second growth assay was then performed to determine the effect of a combination of auranofin and gentamicin on bacterial growth. Briefly, A. baumannii was cultured in LB medium for 22-24 hours in the presence of […], 2.5, 5, 10, 20 or 40 μg/ml auranofin and 0, 30, 100, 300 or 1000 μg/ml gentamicin before growth was determined by the measurement of absorbance at 595 nm using a Synergy HT Bio-Tek plate reader. The growth of A. baumannii was then assessed as a percentage of the positive control (bacteria alone grown in the presence of 2% DMSO)."}}}
{"compound": "CC[P](CC)(CC)=[Au][S][C@@H]1O[C@H](COC(C)=O)[C@@H](OC(C)=O)[C@H](OC(C)=O)[C@H]1OC(C)=O", "note": "[auranofin, 2,3,4,6-tetra-o-acetyl-1-thio-J-D-glucopyranosato-S-(triethylphosphine) gold]", "values": [{"measurement": "zone of inhibition on rifampicin-resistant mutants", "setting": "[1]", "result": "Zones of inhibition formed"}, {"measurement": "effect of depletion on sensitivity to auranofin", "setting": "[2]; depletion of gor", "result": "little effect"}, {"measurement": "sensitivity to auranofin compared to the wild-type strain", "setting": "[2]; mutant lacking gsha", "result": "more sensitive"}, {"measurement": "sensitivity to auranofin compared to the wild-type strain", "setting": "[2]; mutant lacking gshb", "result": "more sensitive"}, {"measurement": "development of resistant bacteria over time", "setting": "S. aureus NCTC 8325; 0.5, 1 or 5 μg/mL auranofin, or 0.5 μg/mL auranofin with 0.2 μg/mL rifampicin", "result": "no resistant bacteria were observed"}, {"measurement": "growth inhibitory effect in time kill assay", "setting": "S. aureus NCTC 8325; auranofin 0.5, 1 or 5 μg/mL, TSB", "result": "concentration- and time-dependent"}, {"measurement": "growth inhibition, disc assay", "setting": "[3]", "result": "shows inhibitory activity against all four multi-drug resistant clinical isolates tested"}, {"measurement": "resistance of potential mutants picked from agar plates, growth assay", "setting": "S. aureus", "result": "none of the potentially auranofin-resistant bacteria picked from agar plates were actually resistant"}, {"measurement": "bacterial colonies growing within the zone of inhibition (resistance)", "setting": "[4]", "result": "No growth was observed"}, {"measurement": "zone of inhibition", "setting": "[4]; NCTC 8325 and clinical isolates incl. MRSA", "result": "produced zones of inhibition"}, {"measurement": "intracellular and extracellular S. aureus growth in infected THP-1 cells", "setting": "[5]", "result": "inhibited intracellular and extracellular S. aureus growth"}, {"measurement": "effect on the biofilm, compound alone", "setting": "[6]; 5 μg/mL auranofin alone or 1.5 μg/mL rifampicin alone", "result": "only a partial effect"}, {"measurement": "effect on existing S. aureus biofilm", "setting": "[6]; 20 μg/mL and 40 μg/mL auranofin", "result": "essentially eliminating the biofilm"}, {"measurement": "effect on existing S. aureus biofilms (crystal violet staining)", "setting": "[6]; 24 hours treatment, FIG. 5", "result": "dose-dependent inhibitory effect"}]}
{"compound": "CC[C@H]1OC(=O)[C@H](C)[C@@H](O[C@H]2C[C@@](C)(OC)[C@@H](O)[C@H](C)O2)[C@H](C)[C@@H](O[C@@H]2O[C@H](C)C[C@H](N(C)C)[C@H]2O)[C@](C)(O)C[C@@H](C)C(=O)[C@H](C)[C@@H](O)[C@]1(C)O", "note": "[erythromycin]", "values": [{"measurement": "concentration for action against existing biofilms (not observed even at)", "setting": "existing biofilms", "result": "> 3", "unit": "µg/mL"}, {"measurement": "concentration at which inhibition of biofilm formation is observed", "setting": "biofilm formation", "result": "0.1 to 0.3", "unit": "µg/mL"}]}
{"compound": "CC(=O)NC[C@H]1CN(c2ccc(N3CCOCC3)c(F)c2)C(=O)O1", "note": "[linezolid]", "values": [{"measurement": "shift between inhibition of biofilm formation and action against existing biofilms", "setting": "existing biofilms; at least", "result": "≥ 15", "unit": "fold"}, {"measurement": "concentration for action against existing biofilms (not observed even at)", "setting": "existing biofilms", "result": "> 100", "unit": "µg/mL"}, {"measurement": "concentration at which inhibition of biofilm formation is observed", "setting": "biofilm formation", "result": "~6", "unit": "µg/mL"}]}
{"compound": "CO[C@H]1/C=C/O[C@@]2(C)Oc3c(C)c(O)c4c(O)c(c(/C=N/N5CCN(C)CC5)c(O)c4c3C2=O)NC(=O)/C(C)=C\\C=C\\[C@H](C)[C@H](O)[C@@H](C)[C@@H](O)[C@@H](C)[C@H](OC(C)=O)[C@@H]1C", "note": "[rifampicin]", "values": [{"measurement": "time after which bacterial growth starts to increase (development of resistance)", "setting": "S. aureus NCTC 8325; 0.2 μg/mL and 1 μg/mL rifampicin", "result": "about 10 hours"}]}
{"compound": "gentamicin", "values": [{"measurement": "concentration that completely prevented biofilm formation", "setting": "[7]", "result": "> 20", "unit": "µg/mL"}, {"measurement": "susceptibility in growth assay", "setting": "[8]; A. baumannii A94", "result": "partially resistant"}, {"measurement": "susceptibility in growth assay", "setting": "[8]; A. baumannii ATCC 17978", "result": "susceptible"}, {"measurement": "susceptibility in growth assay", "setting": "[8]; A. baumannii D2", "result": "completely resistant"}, {"measurement": "effect on biofilm mass, antibiotic alone", "setting": "[6]; 0.9 or 3 μg/mL rifampicin, 25 or 75 μg/mL gentamicin", "result": "no effect on biofilm mass"}]}
